Measurements as given in patent US6451814B1, “Heterocyclic β-3 adrenergic receptor agonists” (Wyeth, priority 2000, dated 2002).
Counter-ions that a name gives are not always drawn.

Experiments:
[1] = target: T1, human β3-adrenergic receptor (Homo sapiens, UniProt P13945); test: cAMP response (SPA kit) in CHO cells transfected with human β3 adrenergic receptor; assay type: cell-based; conditions: for EC50: CHO cells expressing human β3-AR, 10^-9 M to 10^-5 M, 30 min at 37° C., cAMP by SPA, read-out: EC50(β3); for IA(β3): maximal response of compound compared to maximal response of isoproterenol at 10^-5 M, CHO cells, human β3-AR
T1 construct: Full length β3 AR clones (402 amino acids) containing the last 6 amino acids of hβ3—AR are prepared; expressed in transfected cells; host or cells: CHO cells
T1 sequence (P13945 whole entry): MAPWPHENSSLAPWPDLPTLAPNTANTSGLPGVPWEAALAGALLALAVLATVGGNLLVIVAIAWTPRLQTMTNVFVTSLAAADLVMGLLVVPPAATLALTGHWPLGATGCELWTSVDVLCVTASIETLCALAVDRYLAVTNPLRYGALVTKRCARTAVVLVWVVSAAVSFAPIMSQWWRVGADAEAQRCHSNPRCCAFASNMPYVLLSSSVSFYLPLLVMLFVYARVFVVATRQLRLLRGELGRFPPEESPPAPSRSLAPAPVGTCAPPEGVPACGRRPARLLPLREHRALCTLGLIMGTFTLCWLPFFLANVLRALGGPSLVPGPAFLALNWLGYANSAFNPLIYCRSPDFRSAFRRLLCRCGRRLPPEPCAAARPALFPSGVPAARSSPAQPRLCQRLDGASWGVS

Row | melting point [°C] | EC50 [1] [nM] | IA(β3) [1] | SMILES
1 | 96 to 98 |  |  | COc1c(C(=O)N2CCC(Nc3ccc(CCNC[C@H](O)COc4cccc(NC(C)=O)c4)cc3)CC2)sc2ccccc12 (as salt: salt) [Example 98, N-{3-[(2S)-2-Hydroxy-3-(2-{4-[1-(3-methoxy-benzo[b]thiophene-2-carbonyl)-piperidin-4-ylamino]-phenyl}-ethylamino)-propoxy]-phenyl}-acetamide]
2 | 88 to 90 |  |  | Cc1ccsc1C(=O)N1CCC(Nc2ccc(CCNC[C@H](O)COc3ccc(O)cc3)cc2)CC1 (as salt: salt) [Example 100, [4-(4-{2-[(2S)-2-Hydroxy-3-(4-hydroxy-phenoxy)-propylamino]-ethyl}-phenylamino)-piperidin-1-yl]-(3-methyl-thiophen-2-yl)-methanone]
3 | 128 to 130 |  |  | Cc1ccsc1C(=O)N1CCC(Nc2ccc(CCNC[C@H](O)COc3cccc4[nH]c(=O)[nH]c34)cc2)CC1 (as salt: salt) [Example 101, 4-[(2S)-2-Hydroxy-3-(2-{4-[1-(3-methyl-thiophene-2-carbonyl)-piperidin-4-ylamino]-phenyl}-ethylamino)-propoxy]-1,3-dihydro-benzoimidazol-2-one]
4 | 111 to 113 |  |  | O=C(c1n[nH]c2ccccc12)N1CCC(Nc2ccc(CCNC[C@H](O)COc3ccc(O)cc3)cc2)CC1 (as salt: salt) [Example 102, [4-(4-{2-[(2S)-2-Hydroxy-3-(4-hydroxy-phenoxy)-propylamino]-ethyl}-phenylamino)-piperidin-1-yl]-(1H-indazol-3-yl)-methanone]
5 | > 200 |  |  | CS(=O)(=O)Nc1cc([C@@H](O)CNCCc2ccc(NC3CCN(C(=O)c4ccc(C(=O)O)cc4)CC3)cc2)ccc1O (as salt: salt) [Example 105, 4-[4-(4-{2-[(2R)-2-Hydroxy-2-(4-hydroxy-3-methanesulfonylamino-phenyl)-ethylamino]-ethyl}-phenylamino)-piperidine-1-carbonyl]-benzoic Acid]
6 | 89 to 92 |  |  | Cc1ccc(S(=O)(=O)N2CCC(Nc3ccc(CCNC[C@H](O)COc4ccc(O)cc4)cc3)CC2)cc1 (as salt: salt) [Example 112, 4-[(2S)-2-Hydroxy-3-(2-{4-[1-(toluene-4-sulfonyl)-piperidin-4-ylamino]-phenyl}-ethylamino)-propoxy]-phenol]
7 | 98 to 104 |  |  | CC(=O)Nc1ccc(S(=O)(=O)N2CCC(Nc3ccc(CCNC[C@H](O)COc4ccc(O)cc4)cc3)CC2)cc1 (as salt: salt) [Example 114, N-{4-[4-(4-{2-[(2S)-2-Hydroxy-3-(4-hydroxy-phenoxy)-propylamino]-ethyl}-phenylamino)-piperidine-1-sulfonyl]-phenyl}-acetamide]
8 | 142 to 145 |  |  | CS(=O)(=O)Nc1cc([C@@H](O)CNCCc2ccc(NC3CCN(c4nc(-c5ccccc5)cs4)CC3)cc2)ccc1O (as salt: salt) [Example 118, (R)-N-{2-Hydroxy-5-[1-hydroxy-2-(2-{4-[1-(4-phenyl-thiazol-2-yl)-piperidin-4-ylamino]-phenyl}-ethylamino)-ethyl]-phenyl}-methanesulfonamide]
9 | 58 to 64 |  |  | CCCCCCCCNC(=O)N1CCC(Nc2ccc(CCNC[C@H](O)COc3ccc(F)cc3)cc2)CC1 [Example 3, 4-(4-{2-[(2S)-3-(4-Fluoro-phenoxy)-2-hydroxy-propylamino]-ethyl}-phenylamino)-piperidine-1-carboxylic Acid Octylamide]
10 | 89 to 94 | 66 | 0.82 | O=C(NCC(F)(F)F)N1CCC(Nc2ccc(CCNC[C@H](O)COc3ccc(O)cc3)cc2)CC1 [Example 13, 4-(4-{2-[(2S)-2-Hydroxy-3-(4-hydroxy-phenoxy)-propylamino]-ethyl}-phenylamino)-piperidine-1-carboxylic Acid (2,2,2-trifluoro-ethyl)-amide]
11 | 61 to 65 |  |  | CCN(CC)C(=O)N1CCC(Nc2ccc(CCNC[C@H](O)COc3ccc(O)cc3)cc2)CC1 [Example 14, 4-(4-{2-[(2S)-2-Hydroxy-3-(4-hydroxy-phenoxy)-propylamino]-ethyl}-phenylamino)-piperidine-1-carboxylic Acid Diethylamide]
12 | 73 to 77 | 34 | 0.91 | O=C(NCCc1ccc(F)cc1)N1CCC(Nc2ccc(CCNC[C@H](O)COc3ccc(O)cc3)cc2)CC1 [Example 15, 4-(4-{2-[(2S)-2-Hydroxy-3-(4-hydroxy-phenoxy)-propylamino]-ethyl}-phenylamino)-piperidine-1-carboxylic Acid [2-(4-fluoro-phenyl)-ethyl]-amide]
13 | 61 to 65 | 542 | 1 | CCCCCCCCNC(=O)N1CCC(Nc2ccc(CCNC[C@H](O)COc3ccc(O)cc3Cl)cc2)CC1 [Example 16, 4-[4-(2-{[(2S)-3-(2-Chloro-4-hydroxyphenoxy)-2-hydroxypropyl]amino}ethyl)anilino]-N-octyl-1-piperidinecarboxamide]
14 | 92 to 95 | 15 | 0.63 | COc1ccc(C2CCN(C(=O)N3CCC(Nc4ccc(CCNC[C@H](O)COc5ccc(O)cc5)cc4)CC3)CC2)cc1OC1CCCC1 [Example 17, [4-(3-Cyclopentyloxy-4-methoxy-phenyl)-piperidin-1-yl]-[4-(4-{2-[(2S)-2-hydroxy-3-(4-hydroxy-phenoxy)-propylamino]-ethyl}-phenylamino)-piperidin-1-yl]-methanone]
15 | 84 to 89 |  | 1 | NC(=O)N1CCC(Nc2ccc(CCNC[C@H](O)COc3ccc(O)cc3)cc2)CC1 [Example 18, 4-(4-{2-[(2S)-2-Hydroxy-3-(4-hydroxy-phenoxy)-propylamino]-ethyl}-phenylamino)-piperidine-1-carboxylic Acid Amide]
16 | 89 to 95 |  |  | CCCCCCCCNC(=O)N1CCC(Nc2ccc(CCNC[C@H](O)COc3ccc(NS(C)(=O)=O)cc3)cc2)CC1 [Example 22, 4-(4-{2-[(2S)-2-Hydroxy-3-(4-methanesulfonylamino-phenoxy)-propylamino]-ethyl}-phenylamino)-piperidine-1-carboxylic Acid Octylamide]
17 | 73 to 77 | 10 | 0.88 | O=C(NCCCc1cccs1)N1CCC(Nc2ccc(CCNC[C@H](O)COc3ccc(O)cc3)cc2)CC1 [Example 23, 4-(4-{2-[(2S)-2-Hydroxy-3-(4-hydroxy-phenoxy)-propylamino]-ethyl}-phenylamino)-piperidine-1-carboxylic Acid (3-thiophen-2-yl-propyl)-amide]
18 | 89 to 95 | 40 | 0.84 | O=C(NCc1cc(F)cc(F)c1)N1CCC(Nc2ccc(CCNC[C@H](O)COc3ccc(O)cc3)cc2)CC1 [Example 24, 4-(4-{2-[(2S)-2-Hydroxy-3-(4-hydroxy-phenoxy)-propylamino]-ethyl}-phenylamino)-piperidine-1-carboxylic Acid 3,5-difluoro-benzylamide]
19 | 87 to 91 | 64 | 0.87 | COc1cccc(CNC(=O)N2CCC(Nc3ccc(CCNC[C@H](O)COc4ccc(O)cc4)cc3)CC2)c1OC [Example 25, 4-(4-{2-[(2S)-2-Hydroxy-3-(4-hydroxy-phenoxy)-propylamino]-ethyl}-phenylamino)-piperidine-1-carboxylic Acid 2,3-dimethoxy-benzylamide]
20 | 79 to 84 |  | 0.91 | O=C(NCc1ccccc1F)N1CCC(Nc2ccc(CCNC[C@H](O)COc3ccc(O)cc3)cc2)CC1 [Example 26, 4-(4-{2-[(2S)-2-Hydroxy-3-(4-hydroxy-phenoxy)-propylamino]-ethyl}-phenylamino)-piperidine-1-carboxylic Acid 2-fluoro-benzylamide]
21 | 68 to 73 | 60 | 0.86 | O=C(NCc1cccc(F)c1)N1CCC(Nc2ccc(CCNC[C@H](O)COc3ccc(O)cc3)cc2)CC1 [Example 27, 4-(4-{2-[(2S)-2-Hydroxy-3-(4-hydroxy-phenoxy)-propylamino]-ethyl}-phenylamino)-piperidine-1-carboxylic Acid 3-fluoro-benzylamide]
22 | 84 to 86 |  |  | CCCCCCCCNC(=O)N1CCC(S(=O)(=O)c2ccc(CCNC[C@H](O)COc3ccc4c(c3)OCO4)cc2)CC1 [Example 49, 4-(4-{2-[(2S)-3-(Benzo[1,3]dioxol-5-yloxy)-2-hydroxy-propylamino]-ethyl}-benzenesulfonyl)-piperidine-1-carboxylic Acid Octylamide]
23 | 73 to 74 |  |  | CCCCCCCCNC(=O)N1CCC(Nc2ccc(CCNC[C@H](O)COc3cccc(NC(C)=O)c3)cc2)CC1 [Example 63, 4-(4-{2-[(2S)-3-(3-Acetylamino-phenoxy)-2-hydroxy-propylamino]-ethyl}-phenylamino)-piperidine-1-carboxylic Acid Octylamide]
24 | 85 to 87 |  |  | CCCCCCCCNC(=O)N1CCC(Nc2ccc(CCNC[C@H](O)CON=C3CCCc4c(O)cccc43)cc2)CC1 [Example 64, 4-(4-{2-[(2S)-2-Hydroxy-3-(5-hydroxy-3,4-dihydro-2H-naphthalen-1-ylideneaminooxy)-propylamino]-ethyl}-phenylamino)-piperidine-1-carboxylic Acid Octylamide]
25 | 108 to 111 |  |  | CCCCCCNC(=O)Nc1ccc(C(=O)N2CCC(Nc3ccc(CCNC[C@H](O)COc4ccc(O)cc4)cc3)CC2)cc1 [Example 93, 1-Hexyl-3-{4-[4-(4-{2-[(2S)-2-hydroxy-3-(4-hydroxy-phenoxy)-propylamino]-ethyl}-phenylamino)-piperidine-1-carbonyl]-phenyl}-urea]
26 | 68 to 70 |  |  | C=CCc1ccccc1OC[C@@H](O)CNCCc1ccc(NC2CCN(S(=O)(=O)c3ccc(N(CCCCCC)C(N)=O)cc3)CC2)cc1 [Example 110, N-[4-({4-[4-(2-{[(2S)-3-(2-allylphenoxy)-2-hydroxypropyl]amino}ethyl)anilino]-1-piperidinyl}sulfonyl)phenyl]-N-hexylurea]
